How the values were obtained:
[1] = target: Bifunctional 3'-5' exonuclease/ATP-dependent helicase WRN (Homo sapiens, UniProt Q14191); assay: ADP-Glo Kinase Assay
Method: ATPase activity was measured using the ADP-Glo Kinase Assay following the manufacturers recommended protocol.

[2] = target: T1, Bifunctional 3'-5' exonuclease/ATP-dependent helicase WRN [480-1251] (UniProt Q14191); assay: Biochemical Activity Assays
T1 construct: 480-1251
Method: The pure fractions were pooled and desalted/buffer exchanged into storage buffer using a HiTrap desalting column. […] First, WRN alone was pre-incubated with DMSO or compound of interest for 15 minutes. To initiate the reaction, ATP, dsDNA substrate, and ssDNA competitor (ssDNA_comp: […]) were added and incubated at room temperature for 20 minutes at which point DNA unwinding activity was monitored by measuring Cy3 fluorescence. After obtaining the reading, the ATPase activity was measured using the ADP-Glo Kinase Assay following the manufacturers recommended protocol. […] Compounds were assayed in a 10-point dose response in duplicate at a 1% DMSO final assay concentration.

T1 sequence (Q14191 480-1251): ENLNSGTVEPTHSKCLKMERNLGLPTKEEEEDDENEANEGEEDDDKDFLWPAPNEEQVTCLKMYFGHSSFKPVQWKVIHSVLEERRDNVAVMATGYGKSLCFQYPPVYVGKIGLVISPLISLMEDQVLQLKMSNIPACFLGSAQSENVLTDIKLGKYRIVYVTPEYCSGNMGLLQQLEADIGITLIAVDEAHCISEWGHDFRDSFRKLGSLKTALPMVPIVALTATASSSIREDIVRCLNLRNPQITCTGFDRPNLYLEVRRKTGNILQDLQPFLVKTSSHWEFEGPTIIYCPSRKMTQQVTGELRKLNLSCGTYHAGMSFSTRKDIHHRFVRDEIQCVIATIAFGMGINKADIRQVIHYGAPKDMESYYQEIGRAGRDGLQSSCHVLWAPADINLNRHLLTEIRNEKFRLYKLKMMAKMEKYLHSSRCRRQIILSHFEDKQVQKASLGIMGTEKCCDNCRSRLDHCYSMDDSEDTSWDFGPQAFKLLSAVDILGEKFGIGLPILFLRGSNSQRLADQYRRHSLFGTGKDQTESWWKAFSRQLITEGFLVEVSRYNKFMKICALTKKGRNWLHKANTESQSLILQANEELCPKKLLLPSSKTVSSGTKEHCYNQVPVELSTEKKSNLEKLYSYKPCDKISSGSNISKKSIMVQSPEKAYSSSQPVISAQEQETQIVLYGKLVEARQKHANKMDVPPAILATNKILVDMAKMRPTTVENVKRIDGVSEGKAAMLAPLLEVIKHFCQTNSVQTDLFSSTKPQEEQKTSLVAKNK
Sequence of Bifunctional 3'-5' exonuclease/ATP-dependent helicase WRN (Q14191 whole entry): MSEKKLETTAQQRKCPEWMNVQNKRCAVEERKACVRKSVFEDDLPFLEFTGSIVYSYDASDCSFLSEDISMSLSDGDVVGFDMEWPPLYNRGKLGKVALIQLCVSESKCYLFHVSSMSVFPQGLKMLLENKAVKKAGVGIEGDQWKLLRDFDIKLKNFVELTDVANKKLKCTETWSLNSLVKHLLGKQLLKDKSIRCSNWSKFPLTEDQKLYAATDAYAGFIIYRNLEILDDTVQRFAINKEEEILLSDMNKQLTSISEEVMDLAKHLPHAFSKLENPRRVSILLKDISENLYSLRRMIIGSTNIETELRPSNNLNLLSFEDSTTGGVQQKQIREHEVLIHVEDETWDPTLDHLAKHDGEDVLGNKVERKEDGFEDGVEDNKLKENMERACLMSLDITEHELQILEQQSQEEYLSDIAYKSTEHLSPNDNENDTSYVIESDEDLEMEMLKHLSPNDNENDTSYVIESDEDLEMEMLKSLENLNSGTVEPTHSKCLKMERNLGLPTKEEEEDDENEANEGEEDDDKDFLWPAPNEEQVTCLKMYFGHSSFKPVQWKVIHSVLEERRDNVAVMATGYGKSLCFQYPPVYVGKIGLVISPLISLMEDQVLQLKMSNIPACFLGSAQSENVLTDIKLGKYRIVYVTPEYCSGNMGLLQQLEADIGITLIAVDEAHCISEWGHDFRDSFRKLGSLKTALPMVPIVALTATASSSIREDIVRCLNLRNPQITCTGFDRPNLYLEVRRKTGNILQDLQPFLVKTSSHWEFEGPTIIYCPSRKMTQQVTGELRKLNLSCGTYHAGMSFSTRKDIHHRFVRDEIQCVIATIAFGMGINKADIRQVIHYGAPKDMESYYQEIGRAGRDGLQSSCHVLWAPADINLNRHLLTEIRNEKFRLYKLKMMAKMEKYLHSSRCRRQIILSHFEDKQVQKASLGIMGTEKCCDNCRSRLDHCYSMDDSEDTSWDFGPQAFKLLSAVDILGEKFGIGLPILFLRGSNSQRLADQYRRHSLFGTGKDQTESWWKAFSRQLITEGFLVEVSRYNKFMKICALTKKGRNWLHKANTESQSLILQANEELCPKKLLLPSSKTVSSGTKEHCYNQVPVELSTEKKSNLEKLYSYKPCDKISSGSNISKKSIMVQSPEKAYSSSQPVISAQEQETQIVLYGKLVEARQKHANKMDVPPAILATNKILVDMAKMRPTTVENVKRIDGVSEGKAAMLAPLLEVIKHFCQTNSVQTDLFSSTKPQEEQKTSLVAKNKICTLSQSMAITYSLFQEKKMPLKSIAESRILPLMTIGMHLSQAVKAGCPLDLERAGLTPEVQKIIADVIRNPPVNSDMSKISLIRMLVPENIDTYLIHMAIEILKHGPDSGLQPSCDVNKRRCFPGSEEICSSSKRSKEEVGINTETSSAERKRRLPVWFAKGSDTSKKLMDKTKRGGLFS

IC50 [1] | IC50 [2] | Structure (SMILES)
23.6 nM | 20.7 nM | CCc1c(N2CCN(C(=O)c3ncnc(C)c3O)CC2)c(=O)n2nc(-c3ccc4c(c3)OCCO4)nc2n1CC(=O)Nc1ccc(C(F)(F)F)cc1Cl [WO2025049746, Example 1]
27.1 nM | 18.7 nM | CCc1c(N2CCN(C(=O)c3ncnc(C)c3O)CC2)c(=O)n2nc(-c3cccc4c3OCCO4)nc2n1CC(=O)Nc1ccc(C(F)(F)F)cc1Cl [WO2025049746, Example 2]
41.2 nM | 34.4 nM | CCc1c(N2CCN(C(=O)c3ncnc(C)c3O)CC2)c(=O)n2nc(-c3ccc4c(c3)CCOC4)nc2n1CC(=O)Nc1ccc(C(F)(F)F)cc1Cl [WO2025049746, Example 3]
– | 66.2 nM | CCc1c(N2CCN(C(=O)c3ncnc(C)c3O)CC2)c(=O)n2nc(-c3cccc4c3CCOC4)nc2n1CC(=O)Nc1ccc(C(F)(F)F)cc1Cl [WO2025049746, Example 4]
86.9 nM | 59.9 nM | CCc1c(N2CCN(C(=O)c3ncnc(C)c3O)CC2)c(=O)n2nc(-c3cccc4c3COCC4)nc2n1CC(=O)Nc1ccc(C(F)(F)F)cc1Cl [WO2025049746, Example 5]
28.5 nM | 22.1 nM | CCc1c(N2CCN(C(=O)c3ncnc(C)c3O)CC2)c(=O)n2nc(-c3ccc4c(c3)OCO4)nc2n1CC(=O)Nc1ccc(C(F)(F)F)cc1Cl [WO2025049746, Example 10]
27.3 nM | 24.6 nM | CCc1c(N2CCN(C(=O)c3ncnc(C)c3O)CC2)c(=O)n2nc(-c3ccc4c(c3)CCO4)nc2n1CC(=O)Nc1ccc(C(F)(F)F)cc1Cl [WO2025049746, Example 11]
34.9 nM | 27.9 nM | CCc1c(N2CCN(C(=O)c3ncnc(C)c3O)CC2)c(=O)n2nc(-c3ccc4c(c3)OCC4)nc2n1CC(=O)Nc1ccc(C(F)(F)F)cc1Cl [WO2025049746, Example 12]
27.3 nM | 23.5 nM | CCc1c(N2CCN(C(=O)c3ncnc(C)c3O)CC2)c(=O)n2nc(-c3ccc4c(c3)COC4)nc2n1CC(=O)Nc1ccc(C(F)(F)F)cc1Cl [WO2025049746, Example 13]
39.3 nM | 33.1 nM | CCc1c(N2CCN(C(=O)c3ncnc(C)c3O)CC2)c(=O)n2nc(-c3cnc4c(c3)COC4)nc2n1CC(=O)Nc1ccc(C(F)(F)F)cc1Cl [WO2025049746, Example 14]
40 nM | 34.4 nM | CCc1c(N2CCN(C(=O)c3ncnc(C)c3O)CC2)c(=O)n2nc(-c3cccc4c3COC4)nc2n1CC(=O)Nc1ccc(C(F)(F)F)cc1Cl [WO2025049746, Example 15]
24.9 nM | 22.4 nM | CCc1c(N2CCN(C(=O)c3ncnc(C)c3O)CC2)c(=O)n2nc(-c3cccc4c3OCO4)nc2n1CC(=O)Nc1ccc(C(F)(F)F)cc1Cl [WO2025049746, Example 16]
88.6 nM | 53.6 nM | CCc1c(N2CCN(C(=O)c3ncnc(C)c3O)CC2)c(=O)n2nc(-c3cnn4c3COCC4)nc2n1CC(=O)Nc1ccc(C(F)(F)F)cc1Cl [WO2025049746, Example 20]
44.8 nM | 38.5 nM | CCc1c(N2CCN(C(=O)c3ncnc(C)c3O)CC2)c(=O)n2nc(-c3ccc4oc(C)nc4c3)nc2n1CC(=O)Nc1ccc(C(F)(F)F)cc1Cl [WO2025049746, Example 21]
37.1 nM | 29.4 nM | CCc1c(N2CCN(C(=O)c3ncnc(C)c3O)CC2)c(=O)n2nc(-c3cccc4c3cnn4C)nc2n1CC(=O)Nc1ccc(C(F)(F)F)cc1Cl [WO2025049746, Example 22]
43.7 nM | 30 nM | CCc1c(N2CCN(C(=O)c3ncnc(C)c3O)CC2)c(=O)n2nc(-c3cccc4nc(C)oc34)nc2n1CC(=O)Nc1ccc(C(F)(F)F)cc1Cl [WO2025049746, Example 23]
42.9 nM | 32.9 nM | CCc1c(N2CCN(C(=O)c3ncnc(C)c3O)CC2)c(=O)n2nc(-c3cncc4c3cnn4C)nc2n1CC(=O)Nc1ccc(C(F)(F)F)cc1Cl [WO2025049746, Example 24]
63.9 nM | 48.8 nM | CCc1c(N2CCN(C(=O)c3ncnc(C)c3O)CC2)c(=O)n2nc(N3CCCOCC3)nc2n1CC(=O)Nc1ccc(C(F)(F)F)cc1Cl [WO2025049746, Example 25]
76.8 nM | 62.1 nM | CCc1c(N2CCN(C(=O)c3ncnc(C)c3O)CC2)c(=O)n2nc(N3CC4(COC4)C3)nc2n1CC(=O)Nc1ccc(C(F)(F)F)cc1Cl [WO2025049746, Example 26]
86.3 nM | 56 nM | CCc1c(N2CCN(C(=O)c3ncnc(C)c3O)CC2)c(=O)n2nc(N3CC(OC)C3)nc2n1CC(=O)Nc1ccc(C(F)(F)F)cc1Cl [WO2025049746, Example 27]
90.9 nM | 60.3 nM | CCc1c(N2CCN(C(=O)c3ncnc(C)c3O)CC2)c(=O)n2nc(N3CCC3)nc2n1CC(=O)Nc1ccc(C(F)(F)F)cc1Cl [WO2025049746, Example 28]
73.9 nM | 63.2 nM | CCc1c(N2CCN(C(=O)c3ncnc(C)c3O)CC2)c(=O)n2nc(N3CCC4(COC4)C3)nc2n1CC(=O)Nc1ccc(C(F)(F)F)cc1Cl [WO2025049746, Example 29]

IC50 [1] | IC50 [2] | Structure (SMILES)
53 nM | 37.2 nM | CCc1c(N2CCN(C(=O)c3ncnc(C)c3O)CC2)c(=O)n2nc(N(C)C)nc2n1CC(=O)Nc1ccc(C(F)(F)F)cc1Cl [WO2025049746, Example 30]
45.2 nM | 28.9 nM | CCc1c(N2CCN(C(=O)c3ncnc(C)c3O)CC2)c(=O)n2nc(N3CCCn4nccc43)nc2n1CC(=O)Nc1ccc(C(F)(F)F)cc1Cl [WO2025049746, Example 31]
29.7 nM | 25 nM | CCc1c(N2CCN(C(=O)c3nc4n(c(=O)c3O)CCOC4)CC2)c(=O)n2nc(C3=CCOCC3)nc2n1CC(=O)Nc1ccc(C(F)(F)F)cc1Cl [WO2025049746, Example 32]
31 nM | 25.8 nM | CCc1c(N2CCN(C(=O)c3cn(C)[nH]c3=O)CC2)c(=O)n2nc(C3=CCOCC3)nc2n1CC(=O)Nc1ccc(C(F)(F)F)cc1Cl [WO2025049746, Example 33]
45.1 nM | 28.5 nM | CCc1c(N2CCN(C(=O)c3ncccc3N)CC2)c(=O)n2nc(C3=CCOCC3)nc2n1CC(=O)Nc1ccc(C(F)(F)F)cc1Cl [WO2025049746, Example 34]
130 nM | 68.4 nM | CCc1c(N2CCN(C(=O)c3cccc[n+]3[O-])CC2)c(=O)n2nc(C3=CCOCC3)nc2n1CC(=O)Nc1ccc(C(F)(F)F)cc1Cl [WO2025049746, Example 35]
42.9 nM | 38.3 nM | CCc1c(N2CCN(C(=O)c3nccc(C)c3N)CC2)c(=O)n2nc(C3=CCOCC3)nc2n1CC(=O)Nc1ccc(C(F)(F)F)cc1Cl [WO2025049746, Example 36]
86.3 nM | 56.2 nM | CCc1c(N2CCN(C(=O)c3ncccc3N=S3(=O)CCC3)CC2)c(=O)n2nc(C3=CCOCC3)nc2n1CC(=O)Nc1ccc(C(F)(F)F)cc1Cl [WO2025049746, Example 37]
70.8 nM | 60.3 nM | CCc1c(N2CCN(C(=O)c3ccccc3NS(C)(=O)=O)CC2)c(=O)n2nc(C3=CCOCC3)nc2n1CC(=O)Nc1ccc(C(F)(F)F)cc1Cl [WO2025049746, Example 38]
45.7 nM | 33 nM | CCc1c(N2CCN(C(=O)c3ccccc3NS(=O)(=O)C3CC3)CC2)c(=O)n2nc(C3=CCOCC3)nc2n1CC(=O)Nc1ccc(C(F)(F)F)cc1Cl [WO2025049746, Example 39]
125 nM | 62.2 nM | CCc1c(N2CCN(C(=O)c3ccccc3NC(=O)c3ccn[nH]3)CC2)c(=O)n2nc(C3=CCOCC3)nc2n1CC(=O)Nc1ccc(C(F)(F)F)cc1Cl [WO2025049746, Example 40]
83.9 nM | 56.9 nM | CCC1=C(N2CCN(C(=O)C3=C4NN=CC4CC=N3)CC2)C(=O)N2N=C(C3CCOCC3)NC2N1CC(=O)Nc1ccc(C(F)(F)F)cc1Cl (stereo not drawn) [WO2025049746, Example 41]
63.9 nM | 41.9 nM | CCc1c(N2CCN(C(=O)c3csc4cncnc34)CC2)c(=O)n2nc(C3=CCOCC3)nc2n1CC(=O)Nc1ccc(C(F)(F)F)cc1Cl [WO2025049746, Example 43]
83.9 nM | 51.7 nM | CCc1c(N2CCN(C(=O)c3cccc4c3ncn4C)CC2)c(=O)n2nc(C3=CCOCC3)nc2n1CC(=O)Nc1ccc(C(F)(F)F)cc1Cl [WO2025049746, Example 44]
29700 nM | – | CCc1c(N2CCN(C(=O)c3ncnc(C)c3O)CC2)c(=O)n2nc(-c3cncc4c3CCOC4)nc2n1CC(=O)Nc1ccc(C(F)(F)F)cc1Cl [WO2025049746, Example 163]
9990 nM | – | CCc1c(N2CCN(C(=O)c3ncnc(C)c3O)CC2)c(=O)n2nc(-c3ccc4c(c3C)COC4)nc2n1CC(=O)Nc1ccc(C(F)(F)F)cc1Cl [WO2025049746, Example 196]
29700 nM | – | CCc1c(N2CCN(C(=O)c3ncnc(C)c3O)CC2)c(=O)n2nc(-c3cc(OC)c(OC)c(OC)c3)nc2n1CC(=O)Nc1ccc(C(F)(F)F)cc1Cl [WO2025049746, Example 268]
29700 nM | – | CCc1c(N2CC3CCN(C(=O)c4ncnc(C)c4O)CC32)c(=O)n2nc(C3=CCOCC3)nc2n1CC(=O)Nc1ccc(C(F)(F)F)cc1Cl (stereo not drawn) [WO2025049746, Example 346]
29700 nM | – | CCc1c(N2CCN(C(=O)c3ncnc(C)c3O)CC2)c(=O)n2nc(C3=CCOCC3)nc2n1CC(=O)NC12CC(C34CC(C(C)(F)F)(C3)C4)(C1)C2 [WO2025049746, Example 354]
29700 nM | – | CCc1c(N2CCN(C(=O)c3ncnc(C)c3O)CC2)c(=O)n2nc(C3=CCOCC3)nc2n1CC(=O)NC12CCC(C(F)(F)F)(CC1)OC2 [WO2025049746, Example 358]
29700 nM | – | CCc1c(N2CCN(C(=O)C3CCOCC3)CC2)c(=O)n2nc(-c3ccnc(O)n3)nc2n1CC(=O)Nc1ccc(C(F)(F)F)cc1Cl [WO2025049746, Example 431]

From BindingDB's records for patent WO2025049746 (Eikon Therapeutics, 2025)
